We go through 13 compounds from PubChem BioAssay (NCI).

Common to all, as to assay: NCI tumour cell line growth inhibition, 48 h
For experiment [1], the system named is HT29 colon.
The subject of experiment [2] is IGROV1 ovarian.
Experiment [3] relates to K-562 leukemia.
Experiment [4] relates to NCI-H460 lung.
For experiment [5], the system named is NCI-H522 lung.
For experiment [6], the system named is OVCAR-3 ovarian.
Experiment [7] deals with OVCAR-8 ovarian.
The subject of experiment [8] is SNB-19 CNS.
Experiment [9] deals with SW-620 colon.
The test system of experiment [10] is TK-10 renal.

Molecules are shown by their SMILES.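 Following 48 hours of exposure in 96-well plates, responses at five concentrations were used to interpolate endpoints linearly. TGI: concentration producing complete growth inhibition.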

On to `NC(=S)N1N=C2c3ccccc3CCC[C@H]2[C@@H]1c1ccccc1`, for which the TGI in experiment [1] is 6.18 µM; in [2], 25 µM; in experiment [3], over 37.9 µM; in experiment [4], 12.1 µM; in experiment [5] it was 1.42 µM; in [6], 1.94 µM. Also, the TGI in [7] was 17.4 µM; in experiment [8] it was 25.2 µM; in experiment [9], 15.3 µM; in experiment [10], 52 µM.
For `CCO/C(O)=c1/s/c(=C(\C#N)c2nc3ccccc3[nH]2)n(-c2ccccc2)c1=N`, the TGI in experiment [1], in experiment [2], in experiment [3], in experiment [4], in [5] and in [6] was over 100 µM throughout. Also, the TGI in [7], in experiment [8], in [9] and in experiment [10] was over 100 µM throughout.
In the case of `CCNC(=S)NNC(=O)c1ccccc1Nc1ccccc1C(=O)NNC(=S)NCC`, the TGI in experiment [1], in [2], in [3], in experiment [4], in [5] and in experiment [6] was over 100 µM in each case. Besides, the TGI in experiment [7], in experiment [8], in experiment [9] and in experiment [10] was over 100 µM each time.
In the case of `Cc1cc(O)c2c(c1)C(C1c3cccc(O)c3C(=O)c3c(O)cc(C)cc31)c1cccc(O)c1C2=O` (stereo not given), the TGI in [1] was 7.62 µM; in experiment [2], 4.56 µM; in [3], 11.7 µM; in [4], 12.8 µM; in experiment [5] it was 3.44 µM; in experiment [6], 0.739 µM. In addition, the TGI in [7] turned out to be 16.1 µM; in experiment [8], 17.1 µM; in [9], 12.9 µM; in [10] it was 20.6 µM.
Regarding `COc1cccc(OC)c1NC(=O)C(=O)Nn1c(NNC(=O)c2ccncc2)nc2ccccc2c1=O`, the TGI in [1], in [2], in [3], in experiment [4], in [5] and in experiment [6] was over 100 µM in each case. Also, the TGI in [7], in experiment [8], in experiment [9] and in experiment [10] was over 100 µM in each case.
Take `COC(=O)C(CCC1(C)OCCO1)=[N+]=[N-]`: the TGI in experiment [1], in experiment [2], in experiment [3], in experiment [4], in experiment [5] and in [6] was over 100 µM throughout. The TGI in experiment [7], in experiment [8], in experiment [9] and in [10] was over 100 µM throughout.
Take `CCCN(CCC)C(=O)c1c(N2CCN(C)CC2)c2cccnc2n2c(C)cnc12`: the TGI in [1], in experiment [2], in experiment [3], in experiment [4], in [5] and in [6] was over 100 µM throughout. The TGI is over 100 µM in [7], 68.1 µM in [8], 45.5 µM in [9] and over 100 µM in [10].
Take `Cc1ccc(NC(=O)C2C3CCC(O3)C2C(=O)O)cc1` (stereo not given): the TGI in experiment [1] is over 64.2 µM; in [2], over 100 µM; in [3], over 77.6 µM; in experiment [4] it was over 100 µM; in [5], over 100 µM; in [6] it was over 89.7 µM. For the same compound, the TGI in experiment [7] is over 100 µM; in [8] it was over 100 µM; in experiment [9], over 45.1 µM; in experiment [10] it was over 100 µM.
On to `Cc1cc(C)n(-c2nc(C)c(CCO)c(=O)[nH]2)n1`, for which the TGI in experiment [1], in experiment [2], in [3], in experiment [4], in experiment [5] and in experiment [6] was over 100 µM each time. Also, the TGI in experiment [7], in experiment [8], in [9] and in experiment [10] was over 100 µM each time.
For `C=C1CCOC2(C(O)C(C)(O)CO)NC(=O)C1(O)NC2=O` (stereo not given), the TGI in experiment [1], in experiment [2], in experiment [3], in [4], in experiment [5] and in experiment [6] was over 100 µM in each case. Further, the TGI in [7], in experiment [8], in experiment [9] and in [10] was over 100 µM each time.
Regarding `COc1cc(/C=C/C(=N\NC(N)=S)c2sc(NNC(C)=O)nc2C)ccc1O`, the TGI in experiment [1], in experiment [2], in experiment [3], in experiment [4], in experiment [5] and in experiment [6] was over 100 µM throughout. Also, the TGI in experiment [7], in [8], in [9] and in experiment [10] was over 100 µM in each case.
In the case of `COc1cc2c[n+](C)c3c4cc(OC)c(OCc5ccccc5)cc4c(OCc4ccccc4)cc3c2cc1OC`, the TGI in experiment [1] is 15.5 µM; in experiment [2] it was 13.2 µM; in experiment [3], over 25 µM; in experiment [4], over 100 µM; in [5] it was 3.4 µM; in experiment [6] it was 10.8 µM. The TGI is 19.6 µM in experiment [7], 15.2 µM in [8], 20.5 µM in experiment [9] and 79 µM in experiment [10].
For `NC1=Nc2ccccc2Sc2cccc(F)c21`, the TGI in experiment [1], in experiment [2], in experiment [3], in [4], in [5] and in [6] was over 100 µM each time. The TGI in experiment [7], in experiment [8], in experiment [9] and in experiment [10] was over 100 µM each time.
